Reference: patent US20110105554A1, “MEANS FOR TREATING MYOSIN-RELATED DISEASES” (KINARIS BIOMEDICALS GMBH, priority 2007, published 2011)
Where “and” joins values, the source holds several entries; their conditions need not be identical. Identical values can stand only once.

Columns and labels:
[1] = system: human hepatocyte carcinoma cells (Hep G2); assay: cells; settings: Homo sapiens, HepG2, 4 h, read-out: half effective concentration EC50, neutral red uptake
Description: Cytotoxicity may be assayed by determining the cellular uptake of neutral red. Only living cells are capable of neutral red uptake via an active transport mechanism. For an exemplary workflow of a cytotoxicity assay, see FIG. 16.
FIG. 16: Cytotoxicity assay.
FIG. 22: Cytotoxic testing of KIN-compounds by neutral red uptake assays. (a) human hepatocyte carcinoma cells (Hep G2) were exposed to KIN-43 for 4 h in the in presence of 1% FBS.
(§1) We are using a library of common organic molecules and functional groups and are applying an empirical force field description of the nonbonding interactions between a ligand and the binding site in order to build up de novo compounds with spatial and electrostatic properties complementary to the allosteric binding site.

[2] = target: rabbit skeletal myosin-2 heavy meromyosin (HMM); assay: Actin-activated ATPase activity, rabbit skeletal myosin-2 HMM; format: biochemical; settings: 0 to 150 μM PBP, hyperbolic fit; read-out: Ki, half-maximal inhibition of actin-activated ATPase activity
Description: (§2) Based on the structure of the myosin-2 motor domain with bound PBP, we performed molecular modeling studies to elucidate the specificity of PBP-binding to myosins from different classes. […] To test the predictions from the modeling studies, we determined actin-activated ATPase activities in the presence of 0 to 150 μM PBP with rabbit skeletal myosin-2 heavy meromyosin (HMM), myosin-5a isolated from chicken brain, and recombinant Dictyostelium myosin class-1, 2 and 5 motor-domain constructs (FIG. 9a). […] The concentrations of PBP required for half-maximal inhibition of the different myosin motors was calculated from fitting the data to hyperbolae. […] To determine the extend to which PBP impairs the coupling between the actin- and nucleotide-binding sites of myosin, we measured the ATP turn-over rates of Dictyostelium myosin-2 and myosin-5b motor domain constructs over the range from 0 to 50 μM F-actin in the absence and presence of 25 μM PBP.
(§3) Protein preparation. Rabbit fast skeletal muscle heavy meromyosin (HMM) was prepared as described by Kron and Spudich^9. […]
(§4) Steady-state kinetics. Basal and actin-activated Mg^2+-ATPase activities were measured with the NADH-coupled assay^19 in a buffer containing 25 mM HEPES, 25 mM KCl, and 4 mM MgCl2, 0.5 mM DTT at pH 7.0 in the presence of 1 mM ATP at 25° C. […]

Dictyostelium myosin-2 = target: T1, Dictyostelium myosin-2 (Dictyostelium discoideum, UniProt P08799, C312Y/S249N); assay: Actin-activated ATPase activity (NADH-coupled assay), Dictyostelium myosin-2; format: biochemical
T1 construct: comprising amino acids 1-698, 1-765, and 1-839 respectively; made in house
Description: as §2
(§5) Values for the rate of maximum ATP turnover (kcat), the concentration of F-actin at which half-maximal activation is achieved (Kapp), and the apparent second order rate constant for actin binding (kcat/Kapp) were estimated from a fit of the data to a hyperbolic function. kcat/Kapp is a direct measure of the coupling efficiency between actin and nucleotide binding and can be determined from the initial slope at F-actin concentrations much smaller than Kapp. […] ATP turn-over rates of Dictyostelium myosin-2 (◯) and Dictyostelium myosin-5b (▪) at increasing F-actin concentrations in the absence (filled symbols) and presence (open symbols) of 25 μM pentabromopseudilin (FIG. 9b):
(§6) Protein preparation. Rabbit fast skeletal muscle heavy meromyosin (HMM) was prepared as described by Kron and Spudich^9. Motor domain constructs of myosin-1E, myosin-2, and myosin-5b from Dictyostelium discoideum comprising amino acids 1-698, 1-765, and 1-839 respectively, were prepared as described previouslyl^10-12. Myosin-5a heavy meromyosin from chicken brain was provided by Dr. T. Scholz (Hannover Medical School, Germany) and F-actin was prepared as described by Lehrer and Kerwar^13.
(§7) Steady-state kinetics. Basal and actin-activated Mg^2+-ATPase activities were measured with the NADH-coupled assay^19 in a buffer containing 25 mM HEPES, 25 mM KCl, and 4 mM MgCl2, 0.5 mM DTT at pH 7.0 in the presence of 1 mM ATP at 25° C. PBP was added to the reaction mixture in the absence of nucleotide and incubated for 20 minutes before the reaction was started by the addition of ATP. NADH oxidation was followed using the change in absorption at 340 nm in a Beckman DU-800 spectrophotometer.

[3] = system: skinned muscle fibre preparations from rabbit psoas muscle; assay: Isometric force measurement on skinned muscle fibres
Text: To test the effect of PBP on fully assembled myofilament arrays, we examined the contractile properties of skinned muscle fibre preparations from rabbit psoas muscle. Pentabromopseudilin leads to a more than 4-fold reduction in isometric force development of skinned muscle fibre preparations from rabbit psoas muscle. The Ki is in the same range as that determined for actomyosin ATPase activity. (FIG. 12)

Dictyostelium myosin-1E = target: T2, Dictyostelium myosin-1E (Dictyostelium discoideum, UniProt Q03479); assay: Actin-activated ATPase activity (NADH-coupled assay), Dictyostelium myosin-1E; format: biochemical
T2 construct: comprising amino acids 1-698, 1-765, and 1-839 respectively; made in house
Description: as §2, §3, §4

chicken myosin-5a [4] = target: T3, chicken myosin-5a (Gallus gallus, UniProt Q02440); assay: In vitro motility assay (actin filament sliding), myosin-5a; format: biochemical; settings: 10 μM PBP
Description: (b) Inhibition of chicken myosin-5a by PBP in the in vitro motility assay. The histograms show the average sliding velocity of Rh/Ph-labeled actin filaments in the absence and presence of 10 μM PBP. Myosin-5a moves actin filaments with an average velocity of 0.6 μm/s±0.05 (dark bars); addition of 10 μM PBP into the same flow cell decreases the average sliding velocity to 0.013 μm/s±0.002 (light grey bars).
The extent and order of isoform-specific differences in the potency of the inhibitor were additionally confirmed by the results of in vitro motility assays). […] (FIG. 11a) Myosin-5a moves actin filaments with an average velocity of 0.6 μm/s±0.05 (dark bars); addition of 10 μM PBP into the same flow cell lead to a 46-fold reduction of the average sliding velocity to 0.013 μm/s±0.002 (light grey bars).
Direct functional Assays. Actin-sliding motility was performed at 25° C. using an Olympus IX81 inverted fluorescence microscope. Experimental flow cells were constructed using bovine serum albumin (0.5 mg/ml in assay buffer)-coated glass slides and nitrocellulose-coated coverslips. Myosins were actin affinity-purified immediately before use, to remove rigor heads^20. […] Average sliding velocity was determined from the Gaussian distribution of automatically tracked actin filaments using DiaTrack 3.0 and Origin 7.0.

[5] = Development toxicity testing on medaka embryos; settings: medaka, in vivo
Description: (a) KIN-43 in concentrations between 0.5 μM and 100 μM were incubated for 48 h with 20 medaka embryos per concentration. […] (b) Light microscopy image of embryo after 48 h in the absence of KIN-43.
as §1

Dictyostelium myosin-5b = target: T4, Dictyostelium myosin-5b (Dictyostelium discoideum, UniProt P54697); assay: Actin-activated ATPase activity (NADH-coupled assay), Dictyostelium myosin-5b; format: biochemical
T4 construct: comprising amino acids 1-698, 1-765, and 1-839 respectively; made in house
Description: as §2, §5, §6, §7

chicken myosin-5a [6] = target: T3, chicken myosin-5a; assay: Actin-activated ATPase activity (NADH-coupled assay), chicken myosin-5a; format: biochemical
Description: as §2, §3, §4

T3 sequence (Q02440 1-764): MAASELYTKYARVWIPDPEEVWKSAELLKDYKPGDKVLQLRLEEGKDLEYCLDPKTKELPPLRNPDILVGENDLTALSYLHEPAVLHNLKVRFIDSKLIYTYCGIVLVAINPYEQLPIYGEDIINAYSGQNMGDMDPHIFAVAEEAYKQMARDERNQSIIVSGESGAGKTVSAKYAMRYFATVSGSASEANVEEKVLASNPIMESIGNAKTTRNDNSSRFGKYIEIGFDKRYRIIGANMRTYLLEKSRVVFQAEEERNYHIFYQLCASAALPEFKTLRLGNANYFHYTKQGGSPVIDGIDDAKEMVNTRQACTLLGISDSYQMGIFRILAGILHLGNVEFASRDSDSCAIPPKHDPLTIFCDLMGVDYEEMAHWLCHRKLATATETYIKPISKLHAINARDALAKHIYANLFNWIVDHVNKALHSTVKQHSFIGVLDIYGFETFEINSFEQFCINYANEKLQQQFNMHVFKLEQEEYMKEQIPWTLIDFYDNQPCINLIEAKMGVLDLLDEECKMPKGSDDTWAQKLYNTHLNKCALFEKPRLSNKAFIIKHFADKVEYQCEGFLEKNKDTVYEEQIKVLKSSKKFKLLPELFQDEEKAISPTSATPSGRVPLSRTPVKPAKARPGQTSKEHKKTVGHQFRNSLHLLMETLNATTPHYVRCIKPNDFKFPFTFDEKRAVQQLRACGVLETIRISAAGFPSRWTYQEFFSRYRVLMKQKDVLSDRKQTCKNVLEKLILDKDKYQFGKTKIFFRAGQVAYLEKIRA
T4 sequence (P54697 1-839): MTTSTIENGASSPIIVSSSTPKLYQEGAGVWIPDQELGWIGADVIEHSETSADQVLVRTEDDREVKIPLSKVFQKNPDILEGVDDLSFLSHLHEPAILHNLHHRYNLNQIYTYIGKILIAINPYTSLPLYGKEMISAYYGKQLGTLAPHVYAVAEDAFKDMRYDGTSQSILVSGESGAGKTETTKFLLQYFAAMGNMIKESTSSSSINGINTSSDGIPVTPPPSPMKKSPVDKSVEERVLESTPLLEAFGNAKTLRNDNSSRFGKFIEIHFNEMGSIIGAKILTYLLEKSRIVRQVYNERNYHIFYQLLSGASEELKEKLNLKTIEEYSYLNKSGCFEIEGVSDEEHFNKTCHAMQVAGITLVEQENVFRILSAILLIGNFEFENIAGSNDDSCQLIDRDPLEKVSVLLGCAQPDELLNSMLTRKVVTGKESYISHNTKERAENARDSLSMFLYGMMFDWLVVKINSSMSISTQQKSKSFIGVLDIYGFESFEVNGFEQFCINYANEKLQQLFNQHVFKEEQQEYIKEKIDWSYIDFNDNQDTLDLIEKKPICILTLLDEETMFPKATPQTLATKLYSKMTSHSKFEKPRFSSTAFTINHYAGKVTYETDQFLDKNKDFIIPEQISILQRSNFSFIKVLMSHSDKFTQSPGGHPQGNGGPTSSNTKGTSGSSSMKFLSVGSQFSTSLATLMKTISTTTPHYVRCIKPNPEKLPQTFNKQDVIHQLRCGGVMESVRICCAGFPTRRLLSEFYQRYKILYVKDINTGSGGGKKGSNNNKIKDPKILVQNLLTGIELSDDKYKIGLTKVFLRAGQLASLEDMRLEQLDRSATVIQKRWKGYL
T1 sequence (P08799 1-765 S249N/C312Y): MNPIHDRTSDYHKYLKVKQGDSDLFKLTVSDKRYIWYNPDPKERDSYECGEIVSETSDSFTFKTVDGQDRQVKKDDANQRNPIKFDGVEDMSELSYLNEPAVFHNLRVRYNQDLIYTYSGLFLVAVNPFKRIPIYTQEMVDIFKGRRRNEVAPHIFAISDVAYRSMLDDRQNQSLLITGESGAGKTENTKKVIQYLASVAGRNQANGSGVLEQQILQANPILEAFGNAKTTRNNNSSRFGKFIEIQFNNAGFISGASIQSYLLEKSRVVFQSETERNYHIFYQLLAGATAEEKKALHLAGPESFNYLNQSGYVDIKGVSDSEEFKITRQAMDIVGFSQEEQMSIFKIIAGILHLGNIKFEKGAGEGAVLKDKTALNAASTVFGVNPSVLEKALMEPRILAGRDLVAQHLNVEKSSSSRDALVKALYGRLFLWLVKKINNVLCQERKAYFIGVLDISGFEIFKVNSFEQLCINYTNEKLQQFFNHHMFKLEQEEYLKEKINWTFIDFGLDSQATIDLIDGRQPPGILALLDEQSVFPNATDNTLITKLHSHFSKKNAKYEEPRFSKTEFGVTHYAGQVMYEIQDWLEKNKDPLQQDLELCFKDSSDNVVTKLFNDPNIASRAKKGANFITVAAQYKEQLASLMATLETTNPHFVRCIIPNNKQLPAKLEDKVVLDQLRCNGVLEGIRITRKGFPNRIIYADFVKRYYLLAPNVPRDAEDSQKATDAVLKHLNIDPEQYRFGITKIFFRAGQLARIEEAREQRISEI
T2 sequence (Q03479 1-698): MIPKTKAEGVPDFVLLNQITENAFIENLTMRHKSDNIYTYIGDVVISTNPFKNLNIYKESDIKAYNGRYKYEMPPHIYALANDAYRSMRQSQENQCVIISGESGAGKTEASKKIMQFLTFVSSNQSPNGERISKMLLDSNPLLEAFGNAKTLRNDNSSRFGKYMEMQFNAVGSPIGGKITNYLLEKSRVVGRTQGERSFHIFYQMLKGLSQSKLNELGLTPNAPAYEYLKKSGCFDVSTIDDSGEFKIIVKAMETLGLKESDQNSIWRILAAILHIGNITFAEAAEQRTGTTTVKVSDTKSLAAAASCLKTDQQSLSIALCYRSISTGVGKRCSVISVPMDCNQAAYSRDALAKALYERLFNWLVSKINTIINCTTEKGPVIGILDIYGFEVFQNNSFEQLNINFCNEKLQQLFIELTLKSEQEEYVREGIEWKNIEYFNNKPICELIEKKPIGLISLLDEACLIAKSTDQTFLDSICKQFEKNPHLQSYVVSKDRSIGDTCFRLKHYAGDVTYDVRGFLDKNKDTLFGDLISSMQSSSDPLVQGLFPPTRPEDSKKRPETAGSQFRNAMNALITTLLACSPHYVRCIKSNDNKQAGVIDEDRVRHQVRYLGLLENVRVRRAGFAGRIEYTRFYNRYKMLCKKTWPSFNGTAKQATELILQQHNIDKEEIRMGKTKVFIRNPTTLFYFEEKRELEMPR
Description for mammalian myosin-5a: In this context, preferred selectivity means a more than 20-fold smaller IC50 value compared to fast skeletal muscle myosin-2 and other references myosins.

Oc1c(Br)cc(Br)cc1-c1[nH]c(Br)c(Br)c1Br [KIN-43]
EC50 [1]: 0.03 µM | Ki [2]: 23 µM | Ki (Dictyostelium myosin-2): 24 µM | fold reduction in coupling (kcat/Kapp) (Dictyostelium myosin-2; 25 μM PBP): 3.7 fold | kcat/Kapp (apparent second order rate constant for actin binding) (Dictyostelium myosin-2; 25 μM PBP, 0 to 50 μM F-actin, 0.037 without): 10000 M⁻¹ s⁻¹ | ATPase activity at 30 μM F-actin in the presence of inhibitor (Dictyostelium myosin-2; >100 μM PBP, 0.7 s^−1 without): 0.02 s⁻¹ | fold reduction in isometric force development [3]: more than 4 fold | Ki (Dictyostelium myosin-1E): 49.5 µM | ATPase activity at 30 μM F-actin in the presence of inhibitor (Dictyostelium myosin-1E; >100 μM PBP, 3.5 s^−1 without): 0.10 s⁻¹ | preferred selectivity: fold smaller IC50 compared to fast skeletal muscle myosin-2 and other reference myosins (mammalian myosin-5a): more than 20 fold | fold reduction of the average sliding velocity (chicken myosin-5a [4]): 46 fold | average sliding velocity of actin filaments (chicken myosin-5a [4]; 0.6 μm/s without): 0.013 μm/s | LC50 at 48 h [5]: 3 µM | fold weaker coupling (kcat/Kapp) (Dictyostelium myosin-5b; 25 μM PBP): 26 fold | kcat/Kapp (apparent second order rate constant for actin binding) (Dictyostelium myosin-5b; 25 μM PBP, 0 to 50 μM F-actin, 0.32 without): 12000 M⁻¹ s⁻¹ | ATPase activity at 30 μM F-actin in the presence of inhibitor (Dictyostelium myosin-5b; >100 μM PBP, 5.5 s^−1 without): 0.05 s⁻¹ | Ki (Dictyostelium myosin-5b; Ki, half-maximal inhibition of actin-activated ATPase activity, 0 to 150 μM PBP, hyperbolic fit): 19.3 µM and 19.1 µM | fold decrease in kcat (Dictyostelium myosin-5b; class-5 myosins): approximately 8 fold | fold increase in Kapp (Dictyostelium myosin-5b; class-5 myosins): more than 25 fold | ATPase activity at 30 μM F-actin in the presence of inhibitor (chicken myosin-5a [6]): 0.34 s⁻¹ | Ki (chicken myosin-5a [6]): 1.19 µM
